# Data from PubChem BioAssay AID1996.
# Settings: buffer; pH 7.4; 200.0 µM
row,SMILES,solubility kinetic [µg/mL]
1,CC(C)(C)c1nc(SCC(=O)NC2CCCC2)c2ccccc2n1,0.6
2,Cc1cc(C)cc(OCC(=O)OCC(=O)NC2CCCC2)c1,38.5
3,Cn1c2ccc(F)cc2c2nc3ccccc3nc21,0.7
4,Cc1ccnc(NC(=O)c2cccc(S(=O)(=O)Nc3ccc(C)cc3C)c2)c1,10.7
5,COc1ccc(CC(C)Nc2cccc(SC)c2)cc1 (stereo not given),1.6
6,C=CCn1c(SCC(N)=O)nc2nc3c(cc2c1=O)COC(C)(C)C3,46.6
7,COc1cc2[nH]c(C(=O)N3CCN(C)CC3)cc2c(OC)c1OC,33.8
8,O=C(N/N=C\c1cccnc1)c1ccccc1O,> 36.2
9,COC(=O)c1ccc(C2NC(=O)c3ccccc3O2)cc1 (stereo not given),5.2
10,Cc1ccc(C)c(SCC(=O)Nc2cccnc2Cl)c1,2.9
11,Nc1ccccc1SCc1ccccc1Cl,3.3
12,CC(C)CC(=O)Nc1ccccc1N1CCN(c2ccccc2)CC1,1.6
13,CCOC(=O)C1CCN(CCC(=O)Nc2cc(C)cc(C)c2)CC1,> 49.9
14,Cc1ccc(OCCNC(=O)Cc2ccc(F)cc2)cc1,29.2
15,CC(=O)c1sc(NC(=O)c2ccccc2)nc1-c1ccccc1,< 0.3
16,Cc1nc(CC(=O)Nc2nccs2)cs1,> 35.9
17,CN(C)c1cccc(C(=O)N(Cc2ccccc2)Cc2ccccc2)c1,4.2
18,Brc1cnc2nc(SC/C=C/c3ccccc3)[nH]c2c1,0.3
19,O=S(=O)(Nc1nc2ccc(Cl)cc2s1)c1cccs1,12.2
20,Cc1cccc(C(=O)NCCNC(=O)c2cccnc2)c1,37.5
21,O=C(NCc1cccnc1)C(=O)Nc1nc(-c2ccccc2)cs1,4.8
22,COc1ccc(CN(C)C(=O)CCl)cc1,> 34.2
23,Cc1ccc(OCC(=O)Nc2ccncc2)c(C)c1,32.1
24,Cc1cccc(OCC(=O)NCC(=O)N/N=C/c2cccnc2)c1,> 49

row,SMILES,solubility kinetic [µg/mL]
1,Cc1cc(NC(=O)CSCC(=O)NC(C)c2ccccc2)no1 (stereo not given),> 50
2,O=C(CNC(=O)c1ccc(Cl)cc1)c1ccccc1,6
3,O=C(CNC(=O)c1ccccc1)NCC(c1ccco1)N1CCCC1 (stereo not given),> 51.2
4,O=C(NC(=O)c1ccccc1Cl)Nc1ccc(-c2cnco2)cc1,< 0.2
5,N#Cc1cnc(N)c(Br)c1,27.8
6,O=c1oc2ccccc2n1Cc1cccc(C(F)(F)F)c1,2.2
7,COc1ccc(CCN(C)CCCC(C#N)(c2cc(OC)c(OC)c(OC)c2)C(C)C)cc1OC.Cl (stereo not given),> 78.2
8,CCn1cnc2scc(-c3ccc(OC)cc3)c2c1=O,> 43
9,CC(C)[C@@H](N)C(=O)N/N=C/c1ccc2nccnc2c1.Cl,> 46.2
10,NS(=O)(=O)c1ccc(NC(=S)NC(=O)C2CCCC2)cc1,> 49.1
11,COc1ccc(C(=O)NCC(=O)OCC(=O)N2CC(C)OC(C)C2)cc1OC (stereo not given),> 59.2
12,CC(=O)N1CCN=C1SCc1cccc(C)c1,33.7
13,COc1ccccc1NCCC(=O)OCC(=O)Nc1ccccc1Cl,> 54.4
14,O=C(CCCc1nc(-c2ccc(Cl)cc2)no1)NC1CCCCC1,2.1
15,CCOc1ccc(S(=O)(=O)/N=C(/Nc2ccc(S(N)(=O)=O)cc2)c2ccccc2)cc1,2.2
16,CCCOc1ccc(CNC(=S)Nc2ccccc2)cc1Cl,1.9
17,COc1cc(C2NC(=O)NC3=C2C(=O)OC3)cc(OC)c1OC (stereo not given),> 48
18,OCCC1CN(Cc2ccon2)CCN1CCc1ccccc1 (stereo not given),42.3
19,Cc1ccc(S(=O)(=O)c2c[nH]c3ccc(C)cc3c2=O)cc1,< 0.7
20,CCOC(=O)c1c(NC(=O)COC(=O)c2cccnc2OCC)sc(C(=O)N(CC)CC)c1C,4.6
21,NC(=O)C1CCN(C(=O)/C=C/c2cc(Br)ccc2F)CC1,47.7
22,COc1cc2c(cc1OC)C(c1cc([N+](=O)[O-])ccc1O)NCC2 (stereo not given),> 49.6
23,Cc1cc(C)nc(N2CCC(C(=O)NC3CC3)CC2)n1,36.4
24,CCOC(=O)C[N+]1(C)CCN(C(C)=O)CC1.[Br-],> 46.4

row,SMILES,solubility kinetic [µg/mL]
1,O=C(COC(=O)CC1CC2CCC1C2)NCc1ccc(F)cc1 (stereo not given),46.1
2,CCCCCCCn1c(NC(=O)CC)nc2ccccc21,13.8
3,O=C(NC1CCN(c2ncccn2)CC1)c1cccc(F)c1,32.8
4,O=C(O)C1CCCCC1C(=O)NCc1ccc(Cl)c(Cl)c1 (stereo not given),35.6
5,CN(CC(=O)Nc1c(Cl)cccc1Cl)C(=O)c1cccn1C,> 51
6,CCOc1c(C)cc(S(=O)(=O)NCc2ccccn2)c(C)c1C,> 50.2
7,O=C(CCc1nc(-c2ccccc2Cl)no1)NC1CCCC1,23
8,Cc1cc(C)cc(N2CCCn3c2nc2c3c(=O)[nH]c(=O)n2C)c1,3.3
9,Cc1ccc(SCC(=O)OCC(=O)NC2(C#N)CCCCC2)cc1,47.6
10,O=C(COc1ncnc2ccccc12)NCCc1ccccc1,44.8
11,Cc1noc(C)c1S(=O)(=O)N1CCC(C(N)=O)CC1,> 43.1
12,c1ccc2c(c1)COC(CNC1CCCCC1)OC2,> 39.2
13,O=C(Nc1ccccc1)c1ccccc1OS(=O)(=O)c1ccccc1,48
14,Cc1ccc(OCCCC(=O)ON=C(N)c2ccccc2C)cc1,19.9
15,O=Cc1cn(Cc2c(F)cccc2Cl)c2ccccc12,5.6
16,CCOCCCNC(=O)c1oc2ccc3c(c2c1C)C(O)CC(C)(C)O3 (stereo not given),> 54.2
17,Cc1cccc(-c2noc(CCC(=O)NC3CCCC3)n2)c1,> 44.9
18,CCN1/C(=C2\OC(=S)N(C)C2=O)C=Cc2ccccc21,0.3
19,O=C(Nc1ccc(O)cc1)/C(=C\C=C\c1ccccc1)NC(=O)c1ccccc1,14.9
20,CCCC(=O)N/C(N)=N/c1nc(C)c2cc(C)ccc2n1,8.5
21,Cc1c(-c2nc3ccccc3[nH]2)cnn1C,> 31.8
22,O=C(Nc1ccccc1)c1ccccc1NC(=O)[C@H]1CCCC[C@H]1C(=O)O,> 55
23,O=[N+]([O-])c1ccccc1OCc1nc(-c2cccs2)no1,0.9
24,COc1cc(CN2CCc3ccccc3C2)cc([N+](=O)[O-])c1O,42.1

row,SMILES,solubility kinetic [µg/mL]
1,CC(=O)c1c(C)[nH]c(C(=O)COC(=O)c2ccc(Cl)nc2)c1C,3.9
2,Cc1ccc2c(CN3CCC(C(N)=O)CC3)cc(=O)oc2c1C,46.2
3,Cn1c(SCc2ccc(F)cc2)nnc1-c1ccncc1,> 45.1
4,C/C(=C\c1ccc(N)cc1)c1nc2ccccc2[nH]1,> 37.4
5,COC(=O)c1cc(CNC(=O)Cc2ccsc2)ccc1OC,47.5
6,CC(NC(=O)/C(=C\c1ccco1)NC(=O)c1ccco1)C(=O)O (stereo not given),46.5
7,O=C(OCC(=O)c1ccccc1Br)c1ccncc1,> 48
8,O=c1[nH]c2ccccc2n1CCCN1CCC(n2c(=O)[nH]c3cc(Cl)ccc32)CC1,50.4
9,CNc1nc(NCc2ccccc2)nc(N)c1[N+](=O)[O-],2.8
10,CCC(=O)Nc1ccc(NC(=S)NC(=O)/C=C/c2ccco2)cc1,3
11,O=C(NCc1ccccn1)C(=O)Nc1cc2c3c(c1)CC(=O)N3CCC2,> 52.6
12,O=C(Nc1ccc(F)c(Cl)c1)c1ccc2c(c1)OCO2,< 0.6
13,Cc1c(C(=O)O)sc2[nH]c(=O)n(Cc3ccccc3)c(=O)c12,45.7
14,O=C(O)C1C2C=CC(C2)C1C(=O)NCc1ccc(Cl)cc1Cl (stereo not given),45.3
15,O=C(COC(=O)c1ccc(Cl)nc1)NCc1ccc(F)cc1,14.3
16,COc1ccc(S(=O)(=O)N2CC(=O)Nc3ccccc32)cc1,> 47.8
17,Cc1cc(OCC(O)CNC(C)c2ccccc2)ccc1C(C)C.Cl (stereo not given),45.3
18,CCOC(=O)CCn1cc(F)c(=O)[nH]c1=O,> 34.5
19,O=C(c1ccc(Cl)cc1[N+](=O)[O-])N1CCOCC1,40.2
20,O=C(COC(=O)c1c(Cl)cccc1Cl)NCc1cccs1,> 51.6
21,Cc1cccc(C(=O)Nc2ccc3c(c2)nc(C)n3C)c1,5.5
22,O=Cc1c(Nc2ccccc2Cl)nc2ccccn2c1=O,< 0.2
23,Cc1ccc(OCCCCN2CCc3ccccc3C2)cc1.Cl,22.8
24,O=C(CN1CCCC1)Nc1cc(C(F)(F)F)ccc1Cl,18.1

row,SMILES,solubility kinetic [µg/mL]
1,Cc1noc(NS(=O)(=O)c2ccc(NC(=O)CC(C)C)cc2)c1C,> 52.7
2,CCN(CC)c1ccc(C=Nc2cccnc2Cl)c(O)c1,33.3
3,O=C(Nc1ccccc1Cl)c1csc(-c2cccnc2)n1,4.3
4,CC(NC(=O)COc1ccccc1)C(c1cccs1)N1CCCC1 (stereo not given),> 51.7
5,O=Cc1ccc(OCCN2CCCC2=O)cc1,> 35
6,CC(C)c1ccc(NC(=O)COc2ccccc2)cc1,10.1
7,COc1cccc(NC(=O)N2C3CCCC2CC(NC(=O)C2CC2)C3)c1 (stereo not given),44.4
8,COc1cc(/C=C\C(=O)O)cc(S(=O)(=O)N2CCCCCC2)c1OC,52.8
9,CC1(CCCN2C(=O)c3ccccc3C2=O)OCCO1,> 41.3
10,Cc1onc(-c2ccccc2)c1C(=O)Nc1nncs1,> 42.9
11,COc1ccc(NC(=O)CNC(=O)c2ccco2)cc1S(=O)(=O)Nc1cc(C)ccc1Br,17.1
12,O=C1OCc2ccc(NS(=O)(=O)c3ccc(C(F)(F)F)cc3)cc21,> 53.6
13,CN(C(=O)COC(=O)/C=C/c1cccs1)C1CCCCC1,17.7
14,Cc1ccc(NC(=O)COC(=O)c2cccnc2)cc1,> 40.5
15,Cc1cc(=O)[nH]c(NCc2ccccc2)n1,30.6
16,Cc1ccc(C(=O)OCN2C(=O)c3ccccc3C2=O)c(O)c1,< 0.7
17,O=C(Nc1nc2ccccc2[nH]1)c1ccc(Br)o1,15.5
18,O/N=C\c1cnc(N2CCN(c3ccccc3)CC2)s1,2.9
19,N#CCc1nc2ccccc2c(=O)[nH]1,> 27.8
20,Fc1ccc(OCCn2cnc(Cl)c2Cl)cc1,29.7
21,COc1ccc(C(=O)Nc2ccc3ccccc3c2)cc1,< 0.6
22,CCOC(=O)c1c(-c2cccc(N)c2)cn2ccccc12,35.1
23,CCNC(=O)CC1C(=O)N(c2ccc(C)cc2)C(=O)N1CCC(C)C (stereo not given),> 51.8
24,Cc1ccccc1C(=O)NCC(=O)N1CCN(C/C=C/c2ccccc2)CC1,> 56.6
